In US20260138976A1 (Hoffmann-La Roche Inc., priority 2022, published 2026) one finds IC50 data, which are given here for 22 compounds.

Experiment [1] deals with T1, DGKζ (hDGKzeta(1-928)-N-His) (Homo sapiens, UniProt Q13574).
T1 construct: hDGKzeta(1-928)-N-His; His (N); made in house; host or cells: Sf21 insect cells (baculovirus)
The experiment can be described thus: In vitro DGK inhibition assay, DGKzeta ADP Glo (in house). In kind it is biochemical. As to conditions: 2 nM DGKζ, 50 μM ATP, 125 uM DLG in liposomes, 1 hour reaction. An outline of the steps:
(§1)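 ADP-Glo luminescence measured ADP formed over 1 h by Sf21-expressed full-length human enzymes: DGKα at 4 nM with 25 µM ATP, DGKζ at 2 nM with 50 µM ATP, both on 125 µM DLG in PS/PC liposomes. Dose–response used 11 threefold dilutions at 2% final DMSO.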

For experiment [2], the target named is T2, DGKα (hDGKalpha(1-735)-N-His) (Homo sapiens, UniProt P23743).
T2 construct: hDGKalpha(1-735)-N-His; His (N); made in house; host or cells: Sf21 insect cells (baculovirus)
As to the kind of experiment: In vitro DGK inhibition assay, DGKalpha ADP Glo (in house). It counts as biochemical. Conditions: 4 nM DGKα, 25 μM ATP, 125 uM DLG in liposomes, 1 hour reaction. Summed up: as §1

SMILES strings stand for the structures. A value given as a limit tells only on which side of the number the result lay.

T2 sequence (P23743 whole entry): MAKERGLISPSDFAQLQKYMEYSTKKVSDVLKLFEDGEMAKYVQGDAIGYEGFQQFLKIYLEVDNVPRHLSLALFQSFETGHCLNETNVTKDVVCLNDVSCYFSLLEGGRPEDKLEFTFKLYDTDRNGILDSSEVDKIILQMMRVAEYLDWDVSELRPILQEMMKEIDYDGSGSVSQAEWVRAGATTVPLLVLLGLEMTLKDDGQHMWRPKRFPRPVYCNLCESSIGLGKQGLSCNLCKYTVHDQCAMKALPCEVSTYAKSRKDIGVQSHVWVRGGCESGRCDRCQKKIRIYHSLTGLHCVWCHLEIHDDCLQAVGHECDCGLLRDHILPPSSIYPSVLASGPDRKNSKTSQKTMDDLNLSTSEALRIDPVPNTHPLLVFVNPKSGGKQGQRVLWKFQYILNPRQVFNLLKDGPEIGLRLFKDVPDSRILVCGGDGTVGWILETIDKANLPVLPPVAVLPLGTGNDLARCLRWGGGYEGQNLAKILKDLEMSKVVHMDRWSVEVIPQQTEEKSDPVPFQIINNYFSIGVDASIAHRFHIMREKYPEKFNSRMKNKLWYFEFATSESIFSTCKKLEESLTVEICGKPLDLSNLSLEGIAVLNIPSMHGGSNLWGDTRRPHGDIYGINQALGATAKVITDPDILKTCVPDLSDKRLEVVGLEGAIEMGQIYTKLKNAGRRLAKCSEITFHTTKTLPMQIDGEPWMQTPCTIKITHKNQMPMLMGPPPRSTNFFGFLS
T1 sequence (Q13574 whole entry): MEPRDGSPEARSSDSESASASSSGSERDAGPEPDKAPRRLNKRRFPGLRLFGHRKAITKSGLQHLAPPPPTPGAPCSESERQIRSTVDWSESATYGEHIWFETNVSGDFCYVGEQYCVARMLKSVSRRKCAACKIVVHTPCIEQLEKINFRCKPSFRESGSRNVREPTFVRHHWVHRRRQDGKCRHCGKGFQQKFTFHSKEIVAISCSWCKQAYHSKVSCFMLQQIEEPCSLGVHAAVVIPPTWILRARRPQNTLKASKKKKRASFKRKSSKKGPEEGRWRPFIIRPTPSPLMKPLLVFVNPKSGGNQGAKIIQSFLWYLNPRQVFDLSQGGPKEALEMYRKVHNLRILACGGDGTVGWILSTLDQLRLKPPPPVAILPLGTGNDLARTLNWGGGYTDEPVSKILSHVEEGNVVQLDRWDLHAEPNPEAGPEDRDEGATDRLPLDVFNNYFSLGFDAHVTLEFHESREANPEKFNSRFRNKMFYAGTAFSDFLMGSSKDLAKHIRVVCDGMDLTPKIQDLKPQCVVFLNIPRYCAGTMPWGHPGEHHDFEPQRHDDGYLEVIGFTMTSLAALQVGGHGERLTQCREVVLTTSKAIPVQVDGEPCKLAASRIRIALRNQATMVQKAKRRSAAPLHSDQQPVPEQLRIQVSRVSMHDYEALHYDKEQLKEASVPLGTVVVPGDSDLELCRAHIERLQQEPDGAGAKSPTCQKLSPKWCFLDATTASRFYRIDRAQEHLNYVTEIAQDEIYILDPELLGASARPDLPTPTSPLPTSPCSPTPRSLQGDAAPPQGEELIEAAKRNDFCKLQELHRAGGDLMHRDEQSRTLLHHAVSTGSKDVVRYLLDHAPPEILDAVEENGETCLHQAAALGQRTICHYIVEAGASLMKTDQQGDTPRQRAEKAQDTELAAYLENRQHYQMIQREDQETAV

On to `CC(C)(C)c1nnc(-c2ccc3c(c2)N(Cc2ccc(-c4ncc(C(F)(F)F)o4)cc2)C(=O)[C@@H](N)CS3(=O)=O)o1` [Example 93, (3R)-3-amino-7-(5-tert-butyl-1,3,4-oxadiazol-2-yl)-1,1-dioxo-5-[[4-[5-(trifluoromethyl)oxazol-2-yl]phenyl]methyl]-2,3-dihydro-1λ^6,5-benzothiazepin-4-one], for which the values for the concentration for half-maximal inhibition (IC50) in experiment [1] and in experiment [2] were 485 nM and 884 nM, respectively.
Taken in the same sequence, the figures for `CC(C)(C#N)c1nnc(-c2ccc3c(c2)N(Cc2ccc(-c4ccc(OC(F)(F)F)cc4)nc2)C(=O)[C@@H](N)CS3(=O)=O)o1` [Example 119, 2-[5-[(3R)-3-amino-1,1,4-trioxo-5-[[6-[4-(trifluoromethoxy)phenyl]-3-pyridyl]methyl]-2,3-dihydro-1λ^6,5-benzothiazepin-7-yl]-1,3,4-oxadiazol-2-yl]-2-methyl-propanenitrile] were 1630 nM and 3450 nM.
Taken in the same sequence, the figures for `N[C@H]1CS(=O)(=O)c2ccc(-c3nnc(N4CCC(F)(F)CC4)o3)cc2N(Cc2ccc(-c3ccc(C(F)(F)F)cn3)cc2)C1=O` [Example 160] were 922 nM and 5180 nM.
Taken in the same sequence, the figures for `CC(C)(C#N)c1nnc(-c2ccc3c(c2)N(Cc2ccc(-c4ccc(C5CC5)cn4)cc2)C(=O)[C@@H](N)CS3(=O)=O)o1` [Example 118, 2-[5-[(3R)-3-amino-5-[[4-(5-cyclopropyl-2-pyridyl)phenyl]methyl]-1,1,4-trioxo-2,3-dihydro-1λ^6,5-benzothiazepin-7-yl]-1,3,4-oxadiazol-2-yl]-2-methyl-propanenitrile] were 814 nM and 16400 nM.
As for `CC(C)(C)c1nnc(-c2ccc3c(c2)N(Cc2ccc(-n4nnc(C(F)(F)F)n4)cc2)C(=O)[C@@H](N)CS3(=O)=O)o1` [Example 90, (3R)-3-amino-7-(5-tert-butyl-1,3,4-oxadiazol-2-yl)-1,1-dioxo-5-[[4-[5-(trifluoromethyl)tetrazol-2-yl]phenyl]methyl]-2,3-dihydro-1λ^6,5-benzothiazepin-4-one], the figures for the IC50 in experiment [1] and in experiment [2] were 2140 nM and 23900 nM, respectively.
For `CC(C)(C#N)c1nnc(-c2ccc3c(c2)N(Cc2ccc(-c4ccc(OC(F)(F)C(F)(F)F)cn4)cc2)C(=O)[C@@H](N)CS3(=O)=O)o1` [Example 129, 2-[5-[(3R)-3-amino-1,1,4-trioxo-5-[[4-[5-(1,1,2,2,2-pentafluoroethoxy)-2-pyridyl]phenyl]methyl]-2,3-dihydro-1λ^6,5-benzothiazepin-7-yl]-1,3,4-oxadiazol-2-yl]-2-methyl-propanenitrile] the same measures were 948 nM and 1680 nM.
For `CC(C)(C#N)c1nnc(-c2ccc3c(c2)N(Cc2ccc(-c4ccc(OC(F)F)cn4)cc2)C(=O)[C@@H](N)CS3(=O)=O)o1` [Example 108, 2-[5-[(3R)-3-amino-5-[[4-[5-(difluoromethoxy)-2-pyridyl]phenyl]methyl]-1,1,4-trioxo-2,3-dihydro-1λ^6,5-benzothiazepin-7-yl]-1,3,4-oxadiazol-2-yl]-2-methyl-propanenitrile] the same measures were 939 nM and 1390 nM.
As for `CC(C)(C#N)c1nnc(-c2ccc3c(c2)N(Cc2ccc(-c4noc(C5CCC(F)(F)CC5)n4)cc2)C(=O)[C@@H](N)CS3(=O)=O)o1` [Example 101, 2-[5-[(3R)-3-amino-5-[[4-[5-(4,4-difluorocyclohexyl)-1,2,4-oxadiazol-3-yl]phenyl]methyl]-1,1,4-trioxo-2,3-dihydro-1λ^6,5-benzothiazepin-7-yl]-1,3,4-oxadiazol-2-yl]-2-methyl-propanenitrile], the results for the 50% inhibitory concentration (IC50) in experiment [1] and in experiment [2] were 192 nM and 25600 nM, respectively.
As for `CC(C)(C)C(N)c1nnc(-c2ccc3c(c2)N(Cc2ccc(-c4noc(C(F)(F)F)n4)cc2)C(=O)[C@@H](N)CS3(=O)=O)o1` (stereo partly drawn) [Example 34, (3R)-3-amino-7-[5-(1-amino-2,2-dimethyl-propyl)-1,3,4-oxadiazol-2-yl]-1,1-dioxo-5-[[4-[5-(trifluoromethyl)-1,2,4-oxadiazol-3-yl]phenyl]methyl]-2,3-dihydro-1λ^6,5-benzothiazepin-4-one], the half-inhibitory concentration (IC50) in experiment [1] was determined as 1670 nM; in experiment [2] it was 12200 nM.
Taken in the same sequence, the figures for `NC(c1nnc(-c2ccc3c(c2)N(Cc2ccc(-c4noc(C(F)(F)F)n4)cc2)C(=O)[C@@H](N)CS3(=O)=O)o1)C(F)(F)F` (some centres unmarked) [Example 94] were 9190 nM and over 60000 nM.
For `COC(=O)N1CC2CC(c3nnc(-c4ccc5c(c4)N(Cc4ccc(-c6ccc(C(F)(F)F)cc6)nc4)C(=O)[C@@H](N)CS5(=O)=O)o3)(C2)C1` [Example 58, methyl 1-[5-[(3R)-3-amino-1,1,4-trioxo-5-[[6-[4-(trifluoromethyl)phenyl]-3-pyridyl]methyl]-2,3-dihydro-1λ^6,5-benzothiazepin-7-yl]-1,3,4-oxadiazol-2-yl]-3-azabicyclo[3.1.1]heptane-3-carboxylate] the same measures were 2140 nM and 26400 nM.
Consider `N[C@H]1CS(=O)(=O)c2cc(F)c(-c3noc(N4CCOC5(CC5)C4)n3)cc2N(Cc2ccc(-c3ccc(C(F)(F)F)cc3)nc2)C1=O` [Example 11, (3R)-3-amino-8-fluoro-7-[5-(4-oxa-7-azaspiro[2.5]octan-7-yl)-1,2,4-oxadiazol-3-yl]-1,1-dioxo-5-[[6-[4-(trifluoromethyl)phenyl]-3-pyridyl]methyl]-2,3-dihydro-1λ^6,5-benzothiazepin-4-one], for which the IC50 in experiment [1] is 690 nM; in experiment [2], over 6250 nM.
Taken in the same sequence, the figures for `CC(C)(c1nnc(-c2ccc3c(c2)N(Cc2ccc(-c4ccc(OC(F)(F)F)cn4)cc2)C(=O)[C@@H](N)CS3(=O)=O)o1)C(F)(F)F` [Example 165, (3R)-3-amino-1,1-dioxo-7-[5-(2,2,2-trifluoro-1,1-dimethyl-ethyl)-1,3,4-oxadiazol-2-yl]-5-[[4-[5-(trifluoromethoxy)-2-pyridyl]phenyl]methyl]-2,3-dihydro-1λ^6,5-benzothiazepin-4-one] were 2220 nM and 1140 nM.
Take `CCC(O)(c1nnc(-c2ccc3c(c2)N(Cc2ccc(-c4noc(C(F)(F)F)n4)cc2)C(=O)[C@@H](N)CS3(=O)=O)o1)C(F)(F)F` (some centres unmarked) [Example 95]: the IC50 worked out at 2420 nM in experiment [1] and 19000 nM in experiment [2].
Taken in the same sequence, the figures for `N[C@H]1CS(=O)(=O)c2cc(F)c(-c3noc(N4CCOC(F)(F)C4)n3)cc2N(Cc2ccc(-c3noc(C(F)(F)F)n3)nc2)C1=O` [Example 12, (3R)-3-amino-7-[5-(2,2-difluoromorpholin-4-yl)-1,2,4-oxadiazol-3-yl]-8-fluoro-1,1-dioxo-5-[[6-[5-(trifluoromethyl)-1,2,4-oxadiazol-3-yl]-3-pyridyl]methyl]-2,3-dihydro-1λ^6,5-benzothiazepin-4-one] were 169 nM and 3040 nM.
For the compound `N[C@H]1CS(=O)(=O)c2ccc(-c3nnc(C(N)(C4CC4)C(F)(F)F)o3)cc2N(Cc2ccc(-c3noc(C4CC4)n3)cc2)C1=O` (some centres unmarked) [Example 171], the IC50 was 722 nM in experiment [1] and over 60000 nM in experiment [2].
Turning to `CC(C)(C#N)c1nnc(-c2ccc3c(c2)N(Cc2ccc(-c4cnn(C(F)(F)F)c4)cc2)C(=O)[C@@H](N)CS3(=O)=O)o1` [Example 115, 2-[5-[(3R)-3-amino-1,1,4-trioxo-5-[[4-[1-(trifluoromethyl)pyrazol-4-yl]phenyl]methyl]-2,3-dihydro-1λ^6,5-benzothiazepin-7-yl]-1,3,4-oxadiazol-2-yl]-2-methyl-propanenitrile], the values for the IC50 in experiment [1] and in experiment [2] were 803 nM and 585 nM, respectively.
As for `N#CC1(c2nc(-c3cc4c(cc3F)S(=O)(=O)C[C@H](N)C(=O)N4Cc3ccc(-c4ccc(C(F)(F)F)cn4)cc3)no2)CC1` [Example 17], the IC50 worked out at 464 nM in experiment [1] and 3210 nM in experiment [2].
For `CC(C)(C#N)c1nnc(-c2ccc3c(c2)N(Cc2ccc(-c4cc(C(F)(F)F)ccn4)cc2)C(=O)[C@@H](N)CS3(=O)=O)o1` [Example 116, 2-[5-[(3R)-3-amino-1,1,4-trioxo-5-[[4-[4-(trifluoromethyl)-2-pyridyl]phenyl]methyl]-2,3-dihydro-1λ^6,5-benzothiazepin-7-yl]-1,3,4-oxadiazol-2-yl]-2-methyl-propanenitrile] the same measures were 918 nM and over 62500 nM.
For `N[C@H]1CS(=O)(=O)c2ccc(-c3nnc(C4(N)CCCCC4)o3)cc2N(Cc2ccc(-c3ccc(C(F)(F)F)cn3)cc2)C1=O` [Example 41, (3R)-3-amino-7-[5-(1-aminocyclohexyl)-1,3,4-oxadiazol-2-yl]-1,1-dioxo-5-[[4-[5-(trifluoromethyl)-2-pyridyl]phenyl]methyl]-2,3-dihydro-1λ^6,5-benzothiazepin-4-one] the same measures were 3240 nM and 30600 nM.
For `CC(C)(C#N)c1nnc(-c2ccc3c(c2)N(Cc2ccc(-n4cc(C(F)(F)F)cn4)cc2)C(=O)[C@@H](N)CS3(=O)=O)o1` [Example 102, 2-[5-[(3R)-3-amino-1,1,4-trioxo-5-[[4-[4-(trifluoromethyl)pyrazol-1-yl]phenyl]methyl]-2,3-dihydro-1λ^6,5-benzothiazepin-7-yl]-1,3,4-oxadiazol-2-yl]-2-methyl-propanenitrile] the same measures were 747 nM and 1120 nM.
Regarding `COc1ccc(-c2ccc(CN3C(=O)[C@@H](N)CS(=O)(=O)c4ccc(-c5nnc(C6(F)CCCN(C)C6)o5)cc43)cc2)cc1` (stereo partly drawn) [Example 50, (3R)-3-amino-7-[5-(3-fluoro-1-methyl-3-piperidyl)-1,3,4-oxadiazol-2-yl]-5-[[4-(4-methoxyphenyl)phenyl]methyl]-1,1-dioxo-2,3-dihydro-1λ^6,5-benzothiazepin-4-one], the IC50 in experiment [1] amounted to 851 nM; in experiment [2], 3380 nM.
